Data as given in patent publication US11528908B2, “Acaricide and application thereof” (priority 2018, dated 2022).

What was measured:
[1] = test system: adult citrus red mites (Panonychus citri Mcgregor); experiment: Glass slide method, mortality of adult mites (Table 7); type: in vivo
Experimental: By using the glass slide method, the effects of the 1500-fold diluted solution and the 3000-fold diluted solution of the acaricide prepared in embodiment 3, the 1500-fold diluted solution of the ethoxy-modified trisiloxane, and the 1500-fold diluted solution of the solid sodium dioctyl sulfosuccinate prepared in embodiment 1 on the adult citrus red mites (Panonychus citri Mcgregor) were tested. Each treatment group had 50 citrus red mites, and the measurement was repeated 4 times, with water as a control.

[2] = test system: mites; experiment: Acaricidal effect of ethoxy-modified trisiloxane alone (statement in summary); details: content 0.667 g/L to 1.0 g/L

| Molecule | Mortality after 10 minutes ([1]; 1500× dilution, 10 minutes after spraying) [dD %] | Mortality after 72 hours ([1]; 1500× dilution, 72 hours after spraying) [dD %] | damage to plants [2] | acaricidal rate for 72 hours ([2]; high concentration) | Mortality after 10 minutes ([1]; in vivo) [cC %] | Mortality after 72 hours ([1]; in vivo) [cC %] |
| --- | --- | --- | --- | --- | --- | --- |
| ethoxy-modified trisiloxane | 15.42 | 28.84 | serious pesticide damage | about 30% |  |  |
| CCCCCCCCOC(=O)CC(C(=O)OCCCCCCCC)S(=O)(=O)O.[Na] (stereo not drawn) [sodium dioctyl sulfosuccinate] |  |  |  |  | 20.35 | 62.45 |
